Laboratory results taken from patent US20240299299A1, “COMPOSITIONS AND METHODS FOR INCREASING THE EFFICACY OF IMMUNOTHERAPIES AND VACCINES” (The Regents of the University of Michigan, priority 2021, published 2024).

Key:
OT-I CD8+ T cells [1] = assay: In vitro central memory (Tcm) differentiation of OT-I CD8+ T cells activated with SIINFEKL peptide and IL-2 with metabolites; assay type: cell-based, mice; settings: day 8; metabolite-supplemented medium (arginine 3 mM, 3-methylhistidine 3 mM, DHB 100 μM, sodium ferulate 100 μM)
Description: (§1) FIG. 2: a) OT-I CD8+ T cells were cultured with different metabolites in vitro as indicated, b,c) shown is the frequency of CD44^+CD62L^+ Tcm CD8+ T cells on day 8. d) OT-I CD8+ T cells were activated with α-CD3/α-CD28 antibodies in presence of metabolites as indicated and shown is the Tcm CD8+ T cells on day 7. Data represent the mean±s.e.m. (n=5).
(§2) Splenocytes from OT-I mice were obtained aseptically. The cells were cultured in 96-well plates (1×10^5 cells per well). For Tcm differentiation study, cells were activated with SIINFEKL peptide (4×10^−9M) in the presence of various metabolites (arginine: 3 mM; 3-methylhistidine: 3 mM; N-acetylneuraminate: 100 μM; disodium sebacate: 100 μM; DHB: 100 μM; pantothenate: 100 μM; γ-aminobutyric acid: 100 μM; glycerol: 100 μM; AICAR: 100 μM, sodium ferulate: 100 μM) for 3 days. Then cells were washed three times with T-cell medium and further cultured with IL-2 (10 ng ml^−1; PeproTech) in the presence of metabolites for 5 days. The cells were then washed twice and re-activated with SIINFEKL peptide (10 μM) for 2 h. The suspension cells were collected, blocked with CD16/32 antibody and stained with the fixable viability dye eFluor 450, FITC-CD44 rat anti-human/mouse and PE-CD62L monoclonal antibody. To test if the central memory CD8+ T cells differentiation is dependent on dendritic cells, CD8 T cells isolated from the spleen in OT-I mice were incubated in the 96-well plate, which was precoated with anti-hamster IgG antibody. […] (1 μg mL^−1) and IL-2 (100 U mL^−1) were added into each well in the presence of 3-methylhistidine (3 mM), DHB (100 μM), or sodium ferulate (100 μM) for 2 days. Then cells were washed for three times to remove α-CD3/α-CD28 antibodies and further incubated with metabolites and IL-2 (10 ng ml^−1) for 5 days. Thereafter, cells were collected for central memory CD8^+ T cells analysis. For CD8^+ T cells survival study, cells were activated with antigen peptide as above, following with thoroughly washing, and incubation in presence of IL-2 for 2 days. Metabolites were added during this incubation (arginine: 3 mM, 1 mM; 3-methylhistidine: 3 mM, 1 mM, 500 μM, 100 μM; N-acetylneuraminate: 100 μM; disodium sebacate: 100 μM; DHB: 100 μM, 50 μM, 20 μM; pantothenate: 100 μM; γ-aminobutyric acid: 100 μM; glycerol: 100 μM; AICAR: 100 μM). Then cells were further incubated in absence of both IL-2 and metabolites for 36 h to induce the apoptosis/dead. For Tcf1^+CD8^+ differentiation study, cells were activated with antigen peptide as above, followed by thoroughly washing, and incubation with metabolites in presence of IL-2 for 3 days. […] Tcf1^+CD8^+, CD44^+CD62L^+CD8^+ and survival (stained with Annexin V-APC and PI) T cells were detected via flow cytometry.

OT-I CD8+ T cells [2] = assay: Tcm differentiation of isolated OT-I CD8+ T cells activated with α-CD3/α-CD28 in the absence of dendritic cells; assay type: cell-based, mice; settings: α-CD3/α-CD28 activation; 3-methylhistidine 3 mM, DHB 100 μM; day 7
Description: as §1
Splenocytes from OT-I mice were obtained aseptically. The cells were cultured in 96-well plates (1×10^5 cells per well). For Tcm differentiation study, cells were activated with SIINFEKL peptide (4×10^−9M) in the presence of various metabolites (arginine: 3 mM; 3-methylhistidine: 3 mM; N-acetylneuraminate: 100 μM; disodium sebacate: 100 μM; DHB: 100 μM; pantothenate: 100 μM; γ-aminobutyric acid: 100 μM; glycerol: 100 μM; AICAR: 100 μM, sodium ferulate: 100 μM) for 3 days. Then cells were washed three times with T-cell medium and further cultured with IL-2 (10 ng ml^−1; PeproTech) in the presence of metabolites for 5 days. The cells were then washed twice and re-activated with SIINFEKL peptide (10 μM) for 2 h. The suspension cells were collected, blocked with CD16/32 antibody and stained with the fixable viability dye eFluor 450, FITC-CD44 rat anti-human/mouse and PE-CD62L monoclonal antibody. […] Tcf1^+CD8^+, CD44^+CD62L^+CD8^+ and survival (stained with Annexin V-APC and PI) T cells were detected via flow cytometry.

OT-I CD8+ T cells [3] = assay: Tcf1+CD8+ differentiation of OT-I T cells with metabolites; assay type: cell-based, mice; settings: day 6
Description: FIG. 3: a) OT-I CD8+ T cells were cultured with different metabolites in vitro as indicated, b,c) shown are the frequency of the Tcf1^+CD8+ T cells and the representative flow cytometry plots on day 6. Data represent the mean±s.e.m. (n=5).
as §2, with “days.” for “days. Metabolites were added during this incubation (arginine: 3 mM, 1 mM; 3-methylhistidine: 3 mM, 1 mM, 500 μM, 100 μM; N-acetylneuraminate: 100 μM; disodium sebacate: 100 μM; DHB: 100 μM, 50 μM, 20 μM; pantothenate: 100 μM; γ-aminobutyric acid: 100 μM; glycerol: 100 μM; AICAR: 100 μM). Then cells were further incubated in absence of both IL-2 and metabolites for 36 h to induce the apoptosis/dead. For Tcf1^+CD8^+ differentiation study, cells were activated with antigen peptide as above, followed by thoroughly washing, and incubation with metabolites in presence of IL-2 for 3 days.”

OT-I CD8+ T cells [4] = assay: CD8+ T cell survival upon IL-2 withdrawal (Annexin V/PI); assay type: cell-based, mice; settings: dependent on the dose of metabolites
Description: FIG. 4: a) OT-I CD8+ T cells were cultured with different metabolites in vitro as indicated, b,c) shown are the level of survival CD8+ T cells (Annexin V^−PI^−) as well as the representative flow cytometry plots on day 5.5. Data represent the mean±s.e.m. (n=5).
as §2, with “days.” for “days. Metabolites were added during this incubation (arginine: 3 mM, 1 mM; 3-methylhistidine: 3 mM, 1 mM, 500 μM, 100 μM; N-acetylneuraminate: 100 μM; disodium sebacate: 100 μM; DHB: 100 μM, 50 μM, 20 μM; pantothenate: 100 μM; γ-aminobutyric acid: 100 μM; glycerol: 100 μM; AICAR: 100 μM). Then cells were further incubated in absence of both IL-2 and metabolites for 36 h to induce the apoptosis/dead. For Tcf1^+CD8^+ differentiation study, cells were activated with antigen peptide as above, followed by thoroughly washing, and incubation with metabolites in presence of IL-2 for 3 days.”

[5] = tested on: CT26 colon carcinoma cells; assay: CT26 tumor model, intratumoral metabolites plus α-PD-1; assay type: in vivo, BALB/c mice
Description: FIG. 5: a) Therapeutic treatment regimen. BALB/c mice were s.c. inoculated with 1.5×10^5 CT26 colon carcinoma cells. The candidate metabolites were injected intratumorally every other day, 100 μg α-PD-1 was i.p. injected on days 9, 12, 16 and 20. b) Average tumor growth, c) individual tumor growth, and d) overall Kaplan-Meier survival are shown. Data represent the mean±s.e.m. (n=5).
(§3) Animals were cared for following the federal, state and local guidelines. All work conducted on animals was in accordance with and approved by the Institutional Animal Care and Use Committee (IACUC). Female (6-8 weeks old) BALB/c mice from Jackson Laboratory were inoculated with 1.5×10^5 CT26 cells per mouse on the right flank by s.c. injection. Tumor-bearing mice were randomly assigned to different treatment groups. For intratumoral injection study, the mice were injected with 3-methylhistidine (dose: 1 mg per mouse), sodium hippurate (dose: 1 mg per mouse), disodium sebacate (dose: 1 mg per mouse), sodium ferulate (dose: 1 mg per mouse), or DHB (dose: 0.5 mg per mouse) in 40 μL PBS buffer for every other day. The mice were i.p. injected with α-PD-1 antibody (100 μg per dose; clone RMP1-14, Bioxcell) on days 9, 12, 16 and 20 post tumor inoculation. For oral administration study, the mice were injected with 3-methylhistidine (dose: 3 mg per mouse), sodium hippurate (dose: 3 mg per mouse), disodium sebacate (dose: 3 mg per mouse), sodium ferulate (dose: 3 mg per mouse), or DHB (dose: 2.4 mg per mouse) in PBS buffer for 3 times every 4 days. α-PD-1 was injected on days 10, 14, 18 and 22. The tumor size was measured, and the tumor volume was calculated as ½×(length×width^2). Tumor-bearing mice were euthanized when the tumor size reached 1.5 cm in any diameter or when the animals became moribund with severe weight loss (>20%) or tumor ulceration.

[6] = tested on: CT26 colon carcinoma cells; assay: CT26 tumor model, orally administered metabolites plus α-PD-1; assay type: in vivo, BALB/c mice; settings: oral gavage 3 times every 4 days (DHB 2.4 mg, 3-methylhistidine 3 mg per mouse) plus α-PD-1 i.p.
Description: FIG. 6: a) Therapeutic treatment regimen. BALB/c mice were s.c. inoculated with 1.5×10^5 CT26 colon carcinoma cells. The candidate agents were orally administrated 3 times every 4 days, 100 μg α-PD-1 was injected i.p. on days 10, 14, 18 and 22. b) Average tumor growth, c) individual tumor growth. Data represent the mean±s.e.m. (n=4-5).
as §3, with “For oral administration study, the mice were injected with 3-methylhistidine (dose: 3 mg per mouse), sodium hippurate (dose: 3 mg per mouse), disodium sebacate (dose: 3 mg per mouse), sodium ferulate (dose: 3 mg per mouse), or DHB (dose: 2.4 mg per mouse) in PBS buffer for 3 times every 4 days. α-PD-1 was injected on days 10, 14, 18 and 22.” left out, “Tumor-bearing mice were euthanized when the tumor size reached 1.5 cm in any diameter or when the animals became moribund with severe weight loss (>20%) or tumor ulceration.” left out

[7] = tested on: CT26 colon carcinoma cells; assay: CT26 tumor model, metabolite monotherapy i.p. without α-PD-1; assay type: in vivo, BALB/c mice; settings: monotherapy without α-PD-1 IgG; i.p. DHB 2.4 mg or 3-methylhistidine 3 mg per dose
Description: FIG. 7: a-d) In vitro cell viability of DHB at various concentrations in activated T cells, MC38, B16F10, and CT26 tumor cells. e) BALB/c mice were s.c. inoculated with 1.5×10^5 CT26 colon carcinoma cells. DHB (2.4 mg per dose) or 3-methylhistidine (3 mg per dose) was i.p. injected 3 times every 4 days, 100 μg α-PD-1 was i.p. injected on days 11, 15, and 20. Shown is the average tumor growth. Data represent the mean±s.e.m. (n=4-5).

cancer cells = settings: reported in literature (Eroglu et al.); cited from earlier work
[8] = tested on: immune checkpoint blockers (ICBs); settings: reported in literature; cited from earlier work

Cn1cncc1C[C@H](N)C(=O)O [3-methylhistidine]
differentiation of CD44+CD62L+ central memory CD8+ T cells (OT-I CD8+ T cells [1]): significantly increased the differentiation | induction of central memory CD8+ T cells in the absence of dendritic cells (OT-I CD8+ T cells [2]): can also induce central memory CD8^+ T cells | frequency of Tcf1+CD8+ T cells (OT-I CD8+ T cells [3]): increased the frequency | survival of activated CD8+ T cells (OT-I CD8+ T cells [4]): significantly increased the survival | systemic antitumor efficacy of α-PD-1 treatment and CT26 tumor growth ([5]; intratumoral every other day (DHB 0.5 mg, 3-methylhistidine 1 mg per mouse) plus α-PD-1 i.p.): improved the systemic antitumor efficacy of α-PD-1 treatment and slowed down the CT26 tumors growth | tumor-free mice on day 70 ([5]; intratumoral metabolite plus α-PD-1 i.p.): 80% | efficacy of α-PD-1 treatment [6]: improved the efficacy of α-PD-1 treatment | tumor growth in vivo [7]: did not inhibit the tumor growth

COc1cc(/C=C/C(=O)[O-])ccc1O.[Na+] [sodium ferulate]
differentiation of CD44+CD62L+ central memory CD8+ T cells (OT-I CD8+ T cells [1]): significantly increased the differentiation | frequency of Tcf1+CD8+ T cells (OT-I CD8+ T cells [3]): increased the frequency

COc1cc(/C=C/C(=O)O)ccc1O [Ferulic acid]
apoptosis in cancer cells (cancer cells): can induce apoptosis

CN(CC(=O)O)C(=N)N [creatine]
efficacy of immune checkpoint blockers (ICBs) [8]: improve the efficacy of immune checkpoint blockers
